Results taken from patent US8901276B2, “Peptide reagents and methods for detection of colon dysplasia” (The Regents of the University of Michigan, priority 2010, dated 2014).
Where no end group is shown, it is not given here. The star is where a group is joined. FITC = O=C1OC2(c3ccc(O)cc3Oc3cc(O)ccc32)c2ccc(NC(=S)*)cc21

What was measured:
colonic adenomas = experiment: In vivo imaging with multi-spectral scanning fiber endoscope; design: species or system CPC; Apc mice; conditions: for binding to colonic dysplasia/adenomas on fluorescence images / Average T/B: 100 μM topical, 5 min; for Average T/B: Multi-Spectral Scanning Fiber Endoscopy Results, mean ± SD; for range of T/B ratios: dysplasia versus normal appearing adjacent colonic mucosa
Excerpt: A scanning fiber endoscope system was adapted for fluorescence detection in three channels (RGB) using excitation at 440 (NDHB510APA, Nichia, Tokyo, Japan), 532 (FTEC532-V10TA0, Blue Sky Research, Milpitas, Calif.) and 635 (FMXL635-017TA0B, Blue Sky Research) nm using an RGB coupler (OZ Optics, Ottawa, Canada). The three laser sources are delivered simultaneously into the scanning fiber, and focused to the same point on the illumination plane using a custom lens assembly, as shown in the schematic in FIG. 2A. The laser power coming out of the distal tip of the endoscope is <2 mW for each channel, a level consistent with a non-significant risk (NSR) determination by the U.S. Food and Drug Administration (FDA, 21 CFR 812) for future human clinical studies. The amplitude of the spiral scanner was reduced to achieve a divergence angle of 70 deg (max 100 deg) to minimize noise in the periphery of the image. Fluorescence is collected by a ring of 12 step-index plastic optical fibers (POF) with numerical aperture (N.A.) of 0.63 and outer diameter of 250 μm (Toray Industries Inc, Tokyo, Japan).
(§1) The CPC;Apc mice were first imaged with white light using a non-scanning endoscope (Karl Storz Veterinary Endoscopy, Goleta, Calif.) to assess for the presence of colonic adenomas that have a size between ˜0.5 to 4 mm in diameter. Any adenomas were rinsed of debris including stool and mucous, by delivering tap water through a 3 Fr instrument channel. Then, the fluorescent-labeled peptides were delivered topically at a concentration of 100 μM in 1×PBS in a volume of 1 mL to the distal 4 cm of the colon and rectum. The peptides were incubated for 5 minutes and then the unbound peptides were rinsed away with tap water 3 times. The colon was inspected for any residual peptide, and when clean, the colon was insufflated with air and imaged with the multi-spectral scanning fiber endoscope.
Videos collected during endoscopy were exported as avi video files and converted into sequential png images using Apple QuickTime. White light and fluorescence images for each adenoma were analyzed in NIH Image J. The white light image was utilized to draw a region of interest (ROI) around the adenoma or adjacent normal appearing colonic mucosa which was then superimposed onto the fluorescence image. The mean fluorescence intensities were calculated for each ROI, and a target/background (T/B) ratio was calculated for each colonic adenoma and compared to the surrounding normal appearing mucosa.

normal colonic mucosa = experiment: In vivo imaging with multi-spectral scanning fiber endoscope, normal mucosa; design: species or system mice; conditions: mouse
Experimental: as §1

HT29 cells [1] = experiment: Flow cytometry of FITC-labeled peptides; format: cell-based, human; conditions: 10 μM, 60 min, 4° C., FITC channel
Experimental: (§2) Preferential binding of FITC-Peptide 2 to target cells was validated using flow cytometry. HT29 and Hs738.St/Int. (˜2×10^5) cells were grown, detached, and blocked as described above. These cells were incubated with the FITC-Peptide 2 or -Control peptide 2 (10 μM) for 60 min at 4° C. with continuous agitation. The cells were then washed (3×) with cold PBST followed by immediate fixing for 10 min. with 4% paraformaldehyde. The cells were washed again (1×) with PBS and resuspended in 1 mL of PBS. Flow cytometry was performed using FACSDiVa (BD® LSRII, BD Biosciences, San Jose, Calif.) and analyzed using Flowjo analysis program (Tree Star Inc., Ashland, Oreg.).
(§3) Preferential binding of the candidate peptide labeled with 5-FITC to the target and control cells was also validated using flow cytometry. HT29 and Hs738.St/Int. (˜2×10^5) cells were grown, detached, and blocked, as described above. These cells were incubated with the 5-FITC labeled candidate or control peptide (10 μM) for 60 min at 4° C. with continuous agitation. The cells were then washed 3× with cold PBST followed by immediate fixation for 10 min with 4% paraformaldehyde. The cells were washed again with PBS and resuspended in 1 mL of PBS. Flow cytometry was performed using FACSDiVa (BD® LSRII, BD Biosciences, San Jose, Calif.) and analyzed using Flowjo analysis program (Tree Star Inc. Ashland, Oreg.).

Hs738.St/Int. cells [2] = experiment: Flow cytometry of FITC-labeled peptides; format: cell-based, human; conditions: 10 μM, 60 min, 4° C.
Experimental: as §2, §3

HT29 cells [3] = experiment: Fluorescence microscopy of FITC-labeled peptides; format: cell-based, human; conditions: 10 μM, 15 min, 4° C.
Experimental: (§4) Preferential binding of the FITC-Peptide 2 and FITC-Control peptide 2 to target and non-target cells was also validated via fluorescence microscopy. HT29 and Hs738.St/Int. cells were grown in 22 mm2 cover slips with ˜80% confluence. Blocking of non-specific binding was performed by adding PBS/0.5% BSA for 30 min. The cells were then incubated with 10 μM of FITC-Peptide 2 or FITC-Control peptide 2 either at 4 or 37° C. for 15 min followed by 1 μg/mL Hoechst dye (Sigma Aldrich, St. Louis, Mo.) along with the peptide. The cells were washed with PBS for 3 times and fixed with 4% paraformaldehyde at room temperature for 10 min. After fixation, the cells were washed again with PBS (1×) and mounted with ProLong® Gold reagent (Invitrogen, Carlsbad, Calif.) and the fluorescence images were acquired with Leica Confocal system. (Leica Microsystems GMBH, Wetzlar, 35578 Germany)
In addition, the ability of the FITC-Peptide 2 peptide to internalize within the HT29 cells was tested. HT29 cells were incubated for 15 min. at either 4° C. or 37° C. in the presence of 10 μM FITC-Peptide 2.
(§5) Preferential binding of the FITC-labeled candidate and control peptides to the target and non-target cells was further validated via fluorescence microscopy. HT29 and Hs738.St/Int. cells were grown on cover slips to ˜80% confluence. Blocking of non-specific binding was performed by adding PBS/0.5% BSA for 30 min. The cells were then incubated with 10 μM of 5-FITC-labeled candidate or control peptide at either 4 or 37° C. for 15 min followed by staining with 1 μg/mL Hoechst dye (Sigma Aldrich, St. Louis, Mo.) along with the peptide. The cells were washed 3× with PBS and fixed with 4% paraformaldehyde at RT for 10 min. After fixation, the cells were washed again with PBS and mounted with ProLong Gold reagent (Invitrogen, Carlsbad, Calif.) and fluorescence images were collected with confocal microscopy (Leica TCS SP5 Microsystems, Bannockburn, Ill.).

Hs738.St/Int. cells [4] = experiment: Fluorescence microscopy of FITC-labeled peptides; format: cell-based, human; conditions: 10 μM, 15 min
Experimental: as §4, §5

[5] = system: human colon surgical specimens (normal mucosa, dysplastic adenomas, carcinoma); experiment: Binding of synthetic peptides to human surgical specimens of colon cancer (Example 9); conditions: 10 μM, 15 min, RT
Experimental: Fresh frozen sections from human surgical specimens were cryosectioned with […] and used to localize peptide binding. The sectioned tissues were air dried and washed with PBS 1×. Sections were incubated with FITC labeled peptides (10 μM) for 15 min at RT. The sections were washed three times each for 1 min in PBS and fixed with 4% paraformaldehyde for 10 min. After fixing, the sections were washed again (1×) and mounted with ProLong® Gold reagent with DAPI (Invitrogen, Carlsbad, Calif.). The sections were imaged under a confocal microscope ([…]). All surgical specimens were obtained from the tissue procurement core of University of Michigan with approval from the Institutional Review Board (IRB).

[6] = system: human colonic mucosa sections (normal, dysplasia, adenocarcinoma); experiment: Peptide immunohistochemistry on frozen sections (Example 11); conditions: 10 μM, 15 min, RT
Experimental: All specimens were obtained with approval from the University of Michigan Institutional Review Board (IRB). Freshly resected specimens of human colonic mucosa were frozen in OCT and sectioned with 10 μm thickness. The sections were then air dried, washed with PBS, and incubated with the FITC-labeled peptides at a concentration of 10 μM for 15 min at RT. The sections were washed 3× for 1 min in PBS and fixed with 4% paraformaldehyde for 10 min. After fixation, the sections were washed again and mounted with ProLong Gold reagent with DAPI (Invitrogen, Carlsbad, Calif.). The sections were imaged under a confocal microscope (Leica TCS SP5 Microsystems, Bannockburn, Ill.). Adjacent sections were sent for routine histology. The intensity for each image was calculated using Matlab (Mathworks, Natick, Mass.).

HT29 cells [7] = experiment: Competitive inhibition assay (bound phage counts); format: cell-based, human; conditions: up to 200 μM unlabeled peptide
Experimental: Bound phage counts were performed to observe the competitive inhibition effect of the synthetic candidate heptapeptide with its representative phage counterpart in triplicate. HT29 cells (5×10^6) were detached with enzyme free cell dissociation buffer and blocked with 1% BSA containing PBS for 30 min at 4° C. The cells were washed and incubated with phage (2×10^11) for 15 min. Then, the cells were washed with PBS and immediately incubated with different concentrations of unlabeled peptide ranging from 10 to 200 μM for an additional 15 min. Cells were washed 3× and the bound phages were recovered as described above in bound phage counts. The bound phages were then tittered and counted, and the relative inhibition rate was calculated. The inhibition activity of no-insert WT phage by synthetic candidate peptide and phage with unrelated synthetic control peptide were used as negative controls.

[8] = system: human EMR specimens (normal mucosa, polypoid and non-polypoid dysplasia); experiment: Stereomicroscopic validation on EMR specimens; conditions: 10 μmol/L, 5 min, mean±SEM
Excerpt: Binding of the candidate or control peptide to the dysplasia on freshly resected human specimens via endoscopic mucosal resection (EMR) was validated on fluorescence stereomicroscopy. Patients with previously diagnosed polypoid and non-polypoid dysplasia who were referred for EMR were recruited. Institutional review board approval was obtained from the VA Palo Alto Health Care System, and informed consent was acquired. After resection, the specimens were rinsed in PBS 3× to remove debris and mucous. An autofluorescence image was acquired before incubating with the peptide. Then, specimens were incubated with either the FITC-labeled candidate or control peptide at a concentration of 10 μmol/L for 5 min. The unbound peptide was rinsed off with PBS 3×. The mucosal surface of the specimen was oriented face up, and a dab of ink was applied to the upper border as a landmark to register the white light and fluorescence images with histology. A white light image was collected from the specimen with and without an overlying transparent grid that contains squares with dimensions of 1×1 mm^2. Fluorescence images were collected at 500 milliseconds per frame (with the overlying grid removed) using a stereomicroscope (Olympus SZX-16 equipped with Rolera camera; Olympus Corp, Tokyo, Japan) using 477 to 500 nm excitation and 500 to 630 nm emission. A correction to the fluorescence images was performed because the intensity at the center of the image is greater than that in the periphery due to differences in distance. A fluorescence image was collected from a solution of 10 μM FITC in a plate to provide a uniform target for calibration, allowing for quantitative analysis over the entire field of view. After the fluorescence intensities were corrected, lines along the length of the specimen spaced by 2-mm intervals in each image were identified using the grid from the white light image. The mean intensity from each 1×1 mm^2 interval along this length of tissue was calculated using Matlab and compared with histology. Histopathologic interpretation was performed by a gastrointestinal pathologist (HA) who classified the specimens stained with H&E as normal colonic mucosa, dysplasia, or adenocarcinoma. The histopathologic evaluation of the EMR specimens was conducted at VA Palo Alto Health Care System (AM) and classified as either dysplasia or normal mucosa.

Substance | binding to colonic dysplasia/adenomas on fluorescence images (colonic adenomas) | Average T/B (colonic adenomas) | range of T/B ratios (colonic adenomas) | signal on normal colonic mucosa (normal colonic mucosa) | total HT29 cell population bound (HT29 cells [1]) [%] | total HT29 cell population bound (HT29 cells [1]; listed as control peptide) [%] | binding to Hs738.St/Int. cells on flow cytometry (Hs738.St/Int. cells [2]) | binding to the surface of HT29 cells (HT29 cells [3]) | binding to Hs738.St/Int. cells on microscopy (Hs738.St/Int. cells [4]) | binding to specimens classified from normal to carcinoma [5] | staining of any specimen (normal, dysplasia, adenocarcinoma) [6] | inhibition of KCCFPAQ phage binding to HT29 cells (HT29 cells [7]) | fluorescence intensity on stereomicroscopy ([8]; non-polypoid dysplasia) [AU] | fluorescence intensity on stereomicroscopy ([8]; normal mucosa) [AU] | fluorescence intensity on stereomicroscopy ([8]; polypoid dysplasia) [AU]
AKPGYLS-TAMRA: AKPGYLS labeled with 5-Carboxytetramethylrhodamine (TAMRA) (also: TAMRA label, site not given here) | clearly displayed specific binding | 1.67±0.12 | 1.50-1.78 | minimal signal | – | – | – | – | – | – | – | – | – | – | –
GGGAGGGAGGGK (FITC)-NH2 (GGGAGGGAGGGK(FITC)-NH2; N-terminus assumed; SMILES C[C@H](NC(=O)CNC(=O)CNC(=O)CN)C(=O)NCC(=O)NCC(=O)NCC(=O)N[C@@H](C)C(=O)NCC(=O)NCC(=O)NCC(=O)N[C@@H](CCCCNC(=S)Nc1ccc2c(c1)C(=O)OC21c2ccc(O)cc2Oc2cc(O)ccc21)C(N)=O) [FITC-Control peptide 2, glycine/alanine control peptide, reference compound] | – | – | – | – | 18.6 | 2.3 | bound minimally | did not bind | did not bind | not able to bind with any of the specimens | did not stain any of the specimens | No inhibition | 21.8±4.1 | 16.5±2.5 | 14.0±3.0
KCCFPAQ-DEAC: KCCFPAQ labeled with 7-Diethylaminocoumarin-3-carboxylic acid (DEAC) (cysteine pairing not given here; also: DEAC label, place not given here) | clearly displayed specific binding | 1.71±0.19 | 1.50-2.06 | minimal signal | – | – | – | – | – | – | – | – | – | – | –
